Patent US5925618A, “Peptides useful as somatostatin antagonists” (American Cyanamid Company, priority 1998, dated 1999)
Square brackets hold non-standard residues; d marks the D form. Peptide text beside a SMILES is read from it.

How the values were obtained:
[1] = tested on: Male Sprague-Dawley rats; experiment: Serum growth hormone levels in anaesthetized rats (peptide 1, BIM 23014C); format: in vivo, rat
Experimental: Evaluation in anaesthetized rats. Male Sprague-Dawley rats are anaesthetized with Sagatal and fitted so as to allow efficient intravenous treatment with control and test compounds as well as frequent blood sampling. Blood samples are tested for growth hormone (GH) levels by radioimmunoassay. Thirty minutes after the initiation of blood sampling, rats are given 5 μg, 25 μg or 50 μg of peptide 1.

[2] = molecular target: T1, S. cerevisiae (yeast) cells expressing SRIF receptors (Rattus norvegicus, UniProt P30680); experiment: Yeast bioassay for SRIF antagonist activity (LY364 cells growing in response to SRIF, zone of growth inhibition); format: cell-based; conditions: Sample type 4th iteration; 10 μL of 5 mg/mL on disk, SRIF 10 nM, read after 3 days
T1 construct: expressed in transfected cells; host or cells: S. cerevisiae strain LY364
T1 sequence (P30680 whole entry): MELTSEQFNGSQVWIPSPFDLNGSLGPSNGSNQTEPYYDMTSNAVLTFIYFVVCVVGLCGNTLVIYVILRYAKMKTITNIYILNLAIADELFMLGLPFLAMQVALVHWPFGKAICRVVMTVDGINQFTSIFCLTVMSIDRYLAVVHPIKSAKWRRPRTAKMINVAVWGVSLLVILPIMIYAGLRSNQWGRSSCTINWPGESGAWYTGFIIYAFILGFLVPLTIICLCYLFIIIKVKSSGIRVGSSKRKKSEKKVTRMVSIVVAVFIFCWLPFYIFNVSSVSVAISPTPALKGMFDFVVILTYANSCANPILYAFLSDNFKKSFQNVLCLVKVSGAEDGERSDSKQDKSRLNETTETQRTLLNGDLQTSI
Text: SRIF antagonist assay using S. cerevisiae (yeast) cells expressing SRIF receptors that grow in response to SRIF
Agar plates containing LY364 cells that are growing in the presence of added SRIF are the basis for a sensitive SRIF antagonist assay, whereby zones of growth inhibition result from the addition of SRIF antagonists to the surface of the agar plate (see L. A. Price, et al., Molecular and Cellular Biology, 15, 6188-6195, 1995, incorporated herein by reference).
In this assay, LY364 cells are grown overnight in 2 mL of synthetic complete(SC) medium (3.4 g/L YNB without amino acids and ammonium sulfate, 10 g/L ammonium sulfate and 1.4 g/L CSM-ura-trp) with glucose (2%) and without uracil and tryptophan. These cells are washed and cultured for 4 to 8 hours in 5 mL of SC medium with lactate (3%) and without uracil and tryptophan, and finally grown overnight in 5 mL of SC medium with galactose (2%) and without uracil and tryptophan. Molten (50° C.) SC agar medium with galactose (2%) and without uracil, tryptophan and histidine is adjusted to pH 6.8 with KOH, mixed with 2×10^4 cells/mL and SRIF (S-14, 10 nM) and poured into square (20×20 cm) petri dishes. Sterile filter disks are placed on the surface of the agar, and saturated with 10 μL of water or DMSO containing 5 mg/mL test peptides. After three days, the plates display a uniform cloudy background of LY264 cells growing in response to the added SRIF. […] This zone is quantified by measuring its diameter (mm), which varies according to the potency of the SRIF antagonist. Those peptides or mixtures of peptides displaying the largest zones of inhibition are further characterized.
Values are compared among samples in the same experiment, as the degree of yeast growth varies somewhat from assay to assay. For the first five sample types, in which progressively less complex mixtures of peptides are found, this assay is the primary determining factor in choosing which samples form the basis of subsequent syntheses.
Plates are read after 3 days. Samples shown in Table I in bold type are chosen for further synthesis. In Table I, all amino acids are D-amino acids and dashes represent undefined amino acid residues.

[3] = molecular target: T2, rat SSTR2 (Rattus norvegicus, UniProt P30680); experiment: cAMP accumulation in forskolin-stimulated GH4 C1/SSTR2 cells; format: cell-based; conditions: GH4-C1; test peptide 2 μM; read-out: cAMP Assay, Intrinsic activity (percent reversal of SSTR2 activation by SRIF or MK678)
T2 construct: expressed in transfected cells; host or cells: GH4C1 rat pituitary tumor cells
T2 sequence (P30680 whole entry): as above
Text: A primary effect of SRIF upon mammalian cells is the reduction of cyclic adenosine 3',5'-monophosphate(cAMP) levels, via inhibition of adenylyl cyclase. This is the basis of a common assay for SRIF agonists and antagonists, whereby SRIF agonists reduce artificially stimulated cAMP levels, and SRIF antagonists reverse the effect of SRIF. The rat pituitary tumor cell line GH4 C1 predominantly expresses SSTR2, and responds to SRIF and to forskolin, a stimulator of adenylate cyclase (see C. M. Eppler, et al., J. Biol. Chem., 267, 15603-15612, 1992, incorporated herein by reference). A highly sensitive assay for SRIF agonists and antagonists results from additionally transfecting GH4 C1 cells with the cloned rat SSTR2, (see L. A. Price, et al., Molecular and Cellular Biology, 15, 6188-6195, 1995, incorporated herein by reference). This increases the response to SRIF and provides a greater dynamic range for the measurement of SRIF antagonist activity.
Stimulation of cells. GH4 C1 /SSTR2 cells, grown in DMEM with 10% bovine serum, are released from a tissue culture dish by incubation for several minutes at 37° C. with PBS containing 0.5 mM EDTA. Cells are washed in induction buffer (PBS containing 100 μM IBMX (an inhibitor of cAMP breakdown) and 2 mM CaCl2) at room temperature, and resuspended at 2×10^6 /mL in induction buffer. Into each well of a 96-well tray are added 50 μL of a 2× concentration of stimulants in induction buffer. These include (at final concentration) 1.25 μM forskolin, 100 nM SRIF or 10 nM of the SSTR2-selective agonist MK678 and test peptides at various concentrations. To initiate stimulation of the cells, 50 μL (100,000) cells are added to each well, mixed by shaking 10 seconds on a plate shaker and placed at 37° C. for 15 minutes. Stimulation is arrested and cells are lysed by adding 15 μL 0.33N HCl to each well and incubating the plate for 30 minutes at 37° C. Samples are neutralized by addition of 15 μL 0.25N NaOH/50 mM Hepes pH 7.4. Baseline cAMP levels are determined in samples with no added forskolin or SRIF, and each treatment is performed in triplicate.
cAMP assay. To measure accumulated cAMP in the samples, a radioimmunoassay is employed. The scintillation proximity assay (SPA, Amersham, Arlington Heights, Ill.) allows the rapid measurement of ^125 I cAMP bound to a specific antibody without separating bound radioligand from free radioligand. Each of the following reagents (50 μL) are added per well in a 96-well tray: supernatants from the cell stimulation; ^125 I cAMP; SPA beads conjugated to monkey anti-rabbit IgG antibodies; and rabbit anti-cAMP antibodies. For the standard curve, known amounts of cAMP (0.2-12.8 pmol) are added in place of cell supernatants. The 96-well tray is sealed, shaken at room temperature overnight and measured for bound radioligand in a MicroBeta liquid scintillation counter (Wallac, Gaithersburg, Md.). The standard curve is determined for each experiment by performing a nonlinear regression (exponential decay) analysis of cpm measured for the cAMP standards vs. their log concentrations, and test sample values are determined by using Prism software (Graphpad Software Inc., San Diego, Calif.) and are shown in Table II and FIG. 1. FIG. I illustrates the antagonist activity of Peptide 1.
The intrinsic activity of an SRIF antagonist is the percent reversal of the SSTR2, activation by SRIF or MK678, wherein 0% is defined by cAMP levels in samples treated with forskolin plus SRIF or MK678 and 100% is the cAMP level measured after treatment with forskolin alone. Therefore, increased intrinsic activity of a test compound indicates increased antagonist activity of said test compound.
FIG. […]
An inverse agonist is a compound that is not only a pure antagonist (i.e. lacking agonist activity), but also blocks the constitutive activity of an unoccupied receptor. One indication of inverse agonist activity is the ability of a SRIF antagonist to increase cAMP levels in the absence of added SRIF. […]

Structure (SMILES) | Inhibition Zone [2] | Emax [3] | also measured
CC(C)[C@@H]1NC(=O)[C@H](CCCCN)NC(=O)[C@@H](Cc2c[nH]c3ccccc23)NC(=O)[C@H](Cc2ccc(O)cc2)NC(=O)[C@@H](NC(=O)[C@H](N)Cc2ccc3ccccc3c2)CSSC[C@@H](C(=O)N[C@H](C(N)=O)[C@@H](C)O)NC1=O [BIM 23014C, reference compound] | – | – | SGH ([1]; 5 μg peptide 1 group, 10 μg BIM 23014C at 60 min, sample 75 min): 7.0 ng/mL; SGH ([1]; 5 μg peptide 1 group, 60 min (time of 10 μg BIM 23014C dose)): 11.4 ng/mL; serum GH levels after SRIF agonist ([1]; 10 μg at 60 minutes): induces the expected reduction in serum GH levels; SGH ([1]; 25 μg peptide 1 group, 10 μg BIM 23014C at 60 min, sample 75 min): 6.8 ng/mL; SGH ([1]; 25 μg peptide 1 group, 60 min (time of 10 μg BIM 23014C dose)): 13.1 ng/mL; SGH ([1]; 50 μg peptide 1 group, 10 μg BIM 23014C at 60 min, sample 75 min): 3.5 ng/mL; SGH ([1]; 50 μg peptide 1 group, 60 min (time of 10 μg BIM 23014C dose)): 17.1 ng/mL
CC[C@@H](C)[C@@H](NC(=O)[C@@H](Cc1ccccc1)NC(=O)[C@@H](Cc1c[nH]cn1)NC(C)=O)C(=O)N[C@H](CCCNC(=N)N)C(=O)N[C@H](Cc1c[nH]c2ccccc12)C(=O)N[C@H](C)C(N)=O [His Phe Ile Arg Trp Ala] (Ac-[dH][dF][dI][dR][dW][dA]-NH2) | 15 mm | – | –
CC[C@@H](C)[C@@H](NC(=O)[C@@H](Cc1ccccc1)NC(=O)[C@@H](Cc1c[nH]cn1)NC(C)=O)C(=O)N[C@H](CCCNC(=N)N)C(=O)N[C@H](Cc1c[nH]c2ccccc12)C(=O)N[C@H](CC(N)=O)C(N)=O [His Phe Ile Arg Trp Asn] (Ac-[dH][dF][dI][dR][dW][dN]-NH2) | 15 mm | – | –
CC[C@@H](C)[C@@H](NC(=O)[C@@H](Cc1ccccc1)NC(=O)[C@@H](Cc1c[nH]cn1)NC(C)=O)C(=O)N[C@H](CCCNC(=N)N)C(=O)N[C@H](Cc1c[nH]c2ccccc12)C(=O)N[C@H](CCC(N)=O)C(N)=O [His Phe Ile Arg Trp Gln] (Ac-[dH][dF][dI][dR][dW][dQ]-NH2) | 16 mm | – | –
CC[C@@H](C)[C@@H](NC(=O)[C@@H](Cc1ccccc1)NC(=O)[C@@H](Cc1c[nH]cn1)NC(C)=O)C(=O)N[C@H](CCCNC(=N)N)C(=O)N[C@H](Cc1c[nH]c2ccccc12)C(=O)NCC(N)=O [His Phe Ile Arg Trp Gly] (Ac-[dH][dF][dI][dR][dW]G-NH2) | 13 mm | – | –
CC[C@@H](C)[C@@H](NC(=O)[C@@H](Cc1c[nH]c2ccccc12)NC(=O)[C@@H](CCCNC(=N)N)NC(=O)[C@H](NC(=O)[C@@H](Cc1ccccc1)NC(=O)[C@@H](Cc1c[nH]cn1)NC(C)=O)[C@H](C)CC)C(N)=O [His Phe Ile Arg Trp Ile] (Ac-[dH][dF][dI][dR][dW][dI]-NH2) | 16 mm | – | –
CC[C@@H](C)[C@@H](NC(=O)[C@@H](Cc1ccccc1)NC(=O)[C@@H](Cc1c[nH]cn1)NC(C)=O)C(=O)N[C@H](CCCNC(=N)N)C(=O)N[C@H](Cc1c[nH]c2ccccc12)C(=O)N[C@H](CC(C)C)C(N)=O [His Phe Ile Arg Trp Leu] (Ac-[dH][dF][dI][dR][dW][dL]-NH2) | 15 mm | – | –
CC[C@@H](C)[C@@H](NC(=O)[C@@H](Cc1ccccc1)NC(=O)[C@@H](Cc1c[nH]cn1)NC(C)=O)C(=O)N[C@H](CCCNC(=N)N)C(=O)N[C@H](Cc1c[nH]c2ccccc12)C(=O)N[C@H](CCSC)C(N)=O [His Phe Ile Arg Trp Met] (Ac-[dH][dF][dI][dR][dW][dM]-NH2) | 18 mm | – | –
CC[C@@H](C)[C@@H](NC(=O)[C@@H](Cc1c[nH]cn1)NC(=O)[C@@H](Cc1c[nH]c2ccccc12)NC(C)=O)C(=O)N[C@H](CCCNC(=N)N)C(=O)N[C@H](Cc1c[nH]c2ccccc12)C(=O)N[C@H](Cc1ccccc1)C(N)=O [Peptide 22, w-h-i-r-w-f] (Ac-[dW][dH][dI][dR][dW][dF]-NH2) | – | 27.4% | –
CC[C@@H](C)[C@@H](NC(=O)[C@@H](Cc1ccc(O)cc1)NC(=O)[C@@H](Cc1c[nH]c2ccccc12)NC(C)=O)C(=O)N[C@H](CCCNC(=N)N)C(=O)N[C@H](Cc1c[nH]c2ccccc12)C(=O)N[C@H](Cc1ccccc1)C(N)=O [Peptide 23, w-y-i-r-w-f] (Ac-[dW][dY][dI][dR][dW][dF]-NH2) | – | 5.64% | –
CC[C@@H](C)[C@@H](NC(=O)[C@@H](Cc1c[nH]cn1)NC(=O)[C@@H](Cc1ccccc1)NC(C)=O)C(=O)N[C@H](CCCNC(=N)N)C(=O)N[C@H](Cc1c[nH]c2ccccc12)C(=O)N[C@H](Cc1ccccc1)C(N)=O [Peptide 24, f-h-i-r-w-f] (Ac-[dF][dH][dI][dR][dW][dF]-NH2) | – | 65.2% | –
CC[C@@H](C)[C@@H](NC(=O)[C@@H](CCCNC(=N)N)NC(=O)[C@@H](Cc1ccccc1)NC(C)=O)C(=O)N[C@H](CCCNC(=N)N)C(=O)N[C@H](Cc1c[nH]c2ccccc12)C(=O)N[C@H](Cc1ccccc1)C(N)=O [Peptide 25, f-r-i-r-w-f] (Ac-[dF][dR][dI][dR][dW][dF]-NH2) | – | 10.8% | –
CC[C@@H](C)[C@@H](NC(=O)[C@@H](Cc1ccccc1)NC(=O)[C@@H](Cc1c[nH]cn1)NC(C)=O)C(=O)N[C@H](CCCCN)C(=O)N[C@H](Cc1c[nH]c2ccccc12)C(=O)N[C@H](Cc1ccccc1)C(N)=O [Peptide 27, h-f-i-k-w-f] (Ac-[dH][dF][dI][dK][dW][dF]-NH2) | – | 71.2% | –
CC(=O)N[C@H](Cc1c[nH]cn1)C(=O)N[C@H](Cc1ccccc1)C(=O)N[C@@H](C(=O)N[C@H](CCCNC(=N)N)C(=O)N[C@H](Cc1c[nH]c2ccccc12)C(=O)N[C@H](Cc1ccccc1)C(N)=O)C(C)C [Peptide 28, h-f-v-r-w-f] (Ac-[dH][dF][dV][dR][dW][dF]-NH2) | – | 71.2% | –
